# Source: PubChem BioAssay (NCI)
#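 Five compound concentrations were applied to cells in 96-well plates for 48 hours; endpoints were derived by simple linear interpolation of the resulting dose-response curve. GI50 marks 50% less growth. TGI is the concentration that stops growth completely.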 Non-standard residues stand in square brackets, D forms with d. Residues, ends and D or L forms follow the SMILES beside them. *: point of attachment. ONb = O=[N+]([O-])c1ccc(CO*)cc1; AllylGly = C=CC[CH](N)C(=O)O; Boc = CC(C)(C)OC(=O)*
# Key:
# Assay in all cases: NCI anticancer screen, dose series, 48 h
# HT29 colon = test system: HT29 colon
# LOX IMVI melanoma = test system: LOX IMVI melanoma
# ACHN renal = test system: ACHN renal
# A549 NSCLC = test system: A549 NSCLC
# SK-OV-3 ovarian = test system: SK-OV-3 ovarian
# SF-539 CNS = test system: SF-539 CNS
# K-562 leukemia = test system: K-562 leukemia
# MALME-3M melanoma = test system: MALME-3M melanoma
# NCI/ADR-RES ovarian = test system: NCI/ADR-RES ovarian
# BT-549 breast = test system: BT-549 breast
Compound,TGI (HT29 colon),TGI (LOX IMVI melanoma),TGI (ACHN renal),TGI (A549 NSCLC),TGI (SK-OV-3 ovarian),TGI (SF-539 CNS),TGI (K-562 leukemia),TGI (MALME-3M melanoma),GI50 (HT29 colon),GI50 (LOX IMVI melanoma),GI50 (ACHN renal),GI50 (NCI/ADR-RES ovarian),TGI (NCI/ADR-RES ovarian),GI50 (A549 NSCLC),GI50 (SK-OV-3 ovarian),GI50 (SF-539 CNS),GI50 (K-562 leukemia),GI50 (MALME-3M melanoma),GI50 (BT-549 breast),TGI (BT-549 breast)
CC(=O)O/C=C(/C=C/OC(C)=O)C(C/C=C(\C)C#CC=C(C)C)OC(C)=O (stereo not drawn),> 100 µM,70.7 µM,> 100 µM,> 100 µM,> 100 µM,54.6 µM,> 100 µM,> 100 µM,–,–,–,–,–,–,–,–,–,–,–,–
Cn1c(=O)nc2n(-c3ccc(Cl)cc3)c3ccc(Cl)cc3nc-2c1=O,59.2 µM,13.1 µM,–,> 100 µM,> 100 µM,–,37.4 µM,–,–,–,–,–,–,–,–,–,–,–,–,–
C=C1C(=O)O[C@H]2[C@H]1CC/C(COC(=O)c1cc3cc(F)ccc3[nH]1)=C\CC[C@@]1(C)O[C@@H]21,3.14 µM,2.46 µM,2.94 µM,8.73 µM,24.1 µM,3.19 µM,12.1 µM,3.53 µM,1130 nM,1050 nM,1460 nM,1980 nM,5.39 µM,3080 nM,11.6 µM,1550 nM,2240 nM,1670 nM,–,–
Cc1cc2c(c(C#N)c1C)NC(=O)CCC2=O,> 100 µM,–,> 100 µM,> 100 µM,–,> 100 µM,> 100 µM,–,–,–,–,–,–,–,–,–,–,–,–,–
C=CCC(NC(=O)OC(C)(C)C)C(=O)NC(CCC(=O)OCc1ccc([N+](=O)[O-])cc1)C(N)=O (stereo not drawn) (Boc-[AllylGly]-Glu(ONb)-NH2; configuration not given here),–,–,33.3 µg/mL,–,66.3 µg/mL,37.6 µg/mL,65.5 µg/mL,33.1 µg/mL,–,49 µg/mL,18.1 µg/mL,–,–,52.3 µg/mL,24.6 µg/mL,20.6 µg/mL,18.2 µg/mL,18.4 µg/mL,–,–
Cc1nc2c(nc1C)C(=O)c1cc(O)ccc1C2=O,> 87.2 µM,> 100 µM,> 100 µM,> 100 µM,> 100 µM,> 100 µM,> 100 µM,43.7 µM,–,–,–,–,–,–,–,–,–,–,–,–
Cc1ccc(-[n+]2c3cc(N)c(C)cc3nc3cc(C)c(Nc4ccccc4)cc32)cc1,0.345 µM,–,1.17 µM,1.19 µM,1.62 µM,–,2.69 µM,–,37.7 nM,–,107 nM,–,–,44.1 nM,0.258 µM,–,39.3 nM,–,128 nM,717 nM
O=C(CNc1nncs1)NO,> 100 µM,–,> 100 µM,> 100 µM,> 100 µM,> 100 µM,> 100 µM,> 100 µM,–,–,–,–,–,–,–,–,–,–,–,–
CCOc1ccccc1NC(=O)C(=O)CC(=O)c1c(C)n([O-])c2ccccc2[n+]1=O,> 100 µM,> 100 µM,> 100 µM,> 100 µM,> 100 µM,> 100 µM,> 100 µM,> 100 µM,–,–,–,–,–,–,–,–,–,–,–,–
Cn1c2c(c3ccccc31)CCN(CCCCN1CCc3c(n(C)c4ccccc34)C1=O)C2,> 100 µM,–,> 100 µM,> 100 µM,> 100 µM,> 100 µM,> 100 µM,> 100 µM,–,–,–,–,–,–,–,–,–,–,–,–
Cc1cnc2c(C)ccc([N+](=O)[O-])c2c1NCCCN(C)C,> 100 µM,> 100 µM,> 100 µM,> 100 µM,> 100 µM,> 100 µM,> 100 µM,> 100 µM,–,–,–,–,–,–,–,–,–,–,–,–
COc1cc(OC)c([C@@H]2OC(=O)C3C2C(=O)O[C@H]3c2cc(OC)c(OC)cc2OC)cc1OC (stereo partly drawn),> 100 µM,–,> 100 µM,> 100 µM,> 100 µM,> 100 µM,> 100 µM,–,–,–,–,–,–,–,–,–,–,–,–,–
Cc1cc(C)nc(NS(=O)(=O)c2ccc(Nc3c4ccccc4nc4c(C(=O)Nc5ccc(S(=O)(=O)N=C(N)N)cc5)ccc(Cl)c34)cc2)n1,> 100 µM,34.7 µM,> 100 µM,> 100 µM,51 µM,45.6 µM,> 100 µM,> 100 µM,–,–,–,–,–,–,–,–,–,–,–,–
CC1OC(OCC2OC(Oc3c(-c4ccc(O)cc4)oc4cc(O)cc(O)c4c3=O)C(OC3OCC(O)(CO)C3O)C(O)C2O)C(O)C(O)C1O (stereo not drawn),> 100 µM,> 100 µM,> 100 µM,> 100 µM,> 100 µM,> 100 µM,74.9 µM,> 100 µM,–,–,–,–,–,–,–,–,–,–,–,–
Nc1ccn(CCOC(=O)c2ccccc2)c(=O)n1,> 100 µM,> 100 µM,> 100 µM,> 100 µM,> 100 µM,> 100 µM,> 100 µM,> 100 µM,–,–,–,–,–,–,–,–,–,–,–,–
COc1cc(CCc2ccc(OCCN(C)C)cc2)cc(OC)c1OC,> 100 µM,> 100 µM,> 100 µM,> 100 µM,–,> 100 µM,> 100 µM,> 100 µM,–,–,–,–,–,–,–,–,–,–,–,–
O=C(O)c1c(-c2cccc3ccccc23)sc(-c2cccc3ccccc23)c1C(=O)O,> 100 µM,> 100 µM,> 100 µM,> 100 µM,> 100 µM,> 100 µM,> 100 µM,> 100 µM,–,–,–,–,–,–,–,–,–,–,–,–
